IC50 data for 15 compounds are collected here from US9212139B2, “Aryl substituted indoles and their use as blockers of sodium channels” (Purdue Pharma, L.P., priority 2010, dated 2015).

Like-named read-outs stand apart in the source and are kept apart here.

The experiment has as its target human Nav1.7 (Homo sapiens (Human), UniProt Q15858). Kind of experiment: FLIPR or FLIPR TETRA sodium dye assay with KCl and test article pre-incubation. The class given is cell-based. The source says:
For dominant selection of the Nav1.7-expressing clones, the expression plasmid co-expressed the neomycin resistance gene. […] Recombinant beta and gamma subunits were not introduced into this cell line. Additional cell lines expressing recombinant Nav1.7 cloned from other species can also be used, alone or in combination with various beta subunits, gamma subunits or chaperones.
Cell maintenance: Unless otherwise noted, cell culture reagents were purchased from Mediatech of Herndon, Va. The recombinant Nav1.7/HEK293 cells were routinely cultured in growth medium consisting of Dulbecco's […] containing 10% fetal bovine serum (FBS, Hyclone, Thermo Fisher Scientific, Logan, Utah), 100 U/mL penicillin, […], 2-4 mM L-glutamine, and […]. For natural, non-recombinant cell lines, the selective antibiotic was omitted, and additional media formulations can be applied as needed.
The intensity of this emission, but not the wavelength range, is increased when the dye is exposed to Na^+ ions, which it can bind with partial selectivity. Cells expressing Nav1.7 or other sodium channels were loaded with the CoroNa™ Green dye immediately in advance of the fluorescence assay, and then, after agonist stimulation, the mobilization of Na^+ ions was detected as the Na^+ ions flowed from the extracellular fluid into the cytoplasm through the activated sodium channel pores. The dye was stored in the dark as a lyophilized powder, and then an aliquot was dissolved immediately before the cell loading procedure, according to the instructions of the manufacturer to a stock concentration of 10 mM in DMSO. It was then diluted in the assay buffer to a 4× concentrated working solution, so that the final concentration of dye in the cell loading buffer was 5 μM.
These scorpion toxins inhibit the fast inactivation of their cognate target channels. Stock solutions of the agonists were prepared to 40 mM in DMSO (veratridine) and 1 mg/mL in dH2O (scorpion venom), and then diluted to make a 4× or 2× stock (depending on the particular assay) in assay buffer, the final concentration being 100 μM (veratridine) and 10 μg/mL (scorpion venom). Both of the agonists were purchased from Sigma Aldrich, St. Louis, Mo.
Test Compounds: Test compounds were dissolved in DMSO to yield 10 mM stock solutions. […] If a particular test article appeared to be especially potent, then the concentration curve was adjusted, e.g., to 10-fold lower concentrations, in order to perform the dose-response in a more relevant concentration range. Compound dilutions were added during the dye-loading and pre-stimulation step, and then again during the fluorescence assay, early in the kinetic read.
Data Analysis: The data were analyzed according to methods known to those skilled in the art or using the GraphPad® Prism 4.0 Program (available from GraphPad Software, San Diego, Calif.) to determine the IC50 value for the test article. At least one standard reference compound was evaluated during each experiment.
FLIPR® or FLIPR^TETRA® sodium dye assay with KCl and test article pre-incubation: Cells were prepared by plating the recombinant HEK293 cells or other host cells expressing either recombinant or non-recombinant, native, Nav1.7 alpha subunit, alone or in combination with various beta and gamma subunits at a density of ˜40,000 cells/well into a 96-well black, clear-bottom, PDL-coated plate. The assay can be adapted to 384-well or 1,536-well format, if desired, using proportionately less cells and media. […] For counter-screens of other voltage-gated sodium channels, the procedure was very similar, though optimal densities of cells, media and subsequent assay components can be fine-tuned for the particular cell line or isoform.

[1] abbreviates: sodium dye assay with KCl, recombinant human Nav1.7 in HEK293 cells, value ± SEM.
Setting [2] is: read-out: FLIPR Nav1.7 IC50 (μM) ± SEM.

Sequence of human Nav1.7 (Q15858 other isoform, or with tags, fused parts or gaps): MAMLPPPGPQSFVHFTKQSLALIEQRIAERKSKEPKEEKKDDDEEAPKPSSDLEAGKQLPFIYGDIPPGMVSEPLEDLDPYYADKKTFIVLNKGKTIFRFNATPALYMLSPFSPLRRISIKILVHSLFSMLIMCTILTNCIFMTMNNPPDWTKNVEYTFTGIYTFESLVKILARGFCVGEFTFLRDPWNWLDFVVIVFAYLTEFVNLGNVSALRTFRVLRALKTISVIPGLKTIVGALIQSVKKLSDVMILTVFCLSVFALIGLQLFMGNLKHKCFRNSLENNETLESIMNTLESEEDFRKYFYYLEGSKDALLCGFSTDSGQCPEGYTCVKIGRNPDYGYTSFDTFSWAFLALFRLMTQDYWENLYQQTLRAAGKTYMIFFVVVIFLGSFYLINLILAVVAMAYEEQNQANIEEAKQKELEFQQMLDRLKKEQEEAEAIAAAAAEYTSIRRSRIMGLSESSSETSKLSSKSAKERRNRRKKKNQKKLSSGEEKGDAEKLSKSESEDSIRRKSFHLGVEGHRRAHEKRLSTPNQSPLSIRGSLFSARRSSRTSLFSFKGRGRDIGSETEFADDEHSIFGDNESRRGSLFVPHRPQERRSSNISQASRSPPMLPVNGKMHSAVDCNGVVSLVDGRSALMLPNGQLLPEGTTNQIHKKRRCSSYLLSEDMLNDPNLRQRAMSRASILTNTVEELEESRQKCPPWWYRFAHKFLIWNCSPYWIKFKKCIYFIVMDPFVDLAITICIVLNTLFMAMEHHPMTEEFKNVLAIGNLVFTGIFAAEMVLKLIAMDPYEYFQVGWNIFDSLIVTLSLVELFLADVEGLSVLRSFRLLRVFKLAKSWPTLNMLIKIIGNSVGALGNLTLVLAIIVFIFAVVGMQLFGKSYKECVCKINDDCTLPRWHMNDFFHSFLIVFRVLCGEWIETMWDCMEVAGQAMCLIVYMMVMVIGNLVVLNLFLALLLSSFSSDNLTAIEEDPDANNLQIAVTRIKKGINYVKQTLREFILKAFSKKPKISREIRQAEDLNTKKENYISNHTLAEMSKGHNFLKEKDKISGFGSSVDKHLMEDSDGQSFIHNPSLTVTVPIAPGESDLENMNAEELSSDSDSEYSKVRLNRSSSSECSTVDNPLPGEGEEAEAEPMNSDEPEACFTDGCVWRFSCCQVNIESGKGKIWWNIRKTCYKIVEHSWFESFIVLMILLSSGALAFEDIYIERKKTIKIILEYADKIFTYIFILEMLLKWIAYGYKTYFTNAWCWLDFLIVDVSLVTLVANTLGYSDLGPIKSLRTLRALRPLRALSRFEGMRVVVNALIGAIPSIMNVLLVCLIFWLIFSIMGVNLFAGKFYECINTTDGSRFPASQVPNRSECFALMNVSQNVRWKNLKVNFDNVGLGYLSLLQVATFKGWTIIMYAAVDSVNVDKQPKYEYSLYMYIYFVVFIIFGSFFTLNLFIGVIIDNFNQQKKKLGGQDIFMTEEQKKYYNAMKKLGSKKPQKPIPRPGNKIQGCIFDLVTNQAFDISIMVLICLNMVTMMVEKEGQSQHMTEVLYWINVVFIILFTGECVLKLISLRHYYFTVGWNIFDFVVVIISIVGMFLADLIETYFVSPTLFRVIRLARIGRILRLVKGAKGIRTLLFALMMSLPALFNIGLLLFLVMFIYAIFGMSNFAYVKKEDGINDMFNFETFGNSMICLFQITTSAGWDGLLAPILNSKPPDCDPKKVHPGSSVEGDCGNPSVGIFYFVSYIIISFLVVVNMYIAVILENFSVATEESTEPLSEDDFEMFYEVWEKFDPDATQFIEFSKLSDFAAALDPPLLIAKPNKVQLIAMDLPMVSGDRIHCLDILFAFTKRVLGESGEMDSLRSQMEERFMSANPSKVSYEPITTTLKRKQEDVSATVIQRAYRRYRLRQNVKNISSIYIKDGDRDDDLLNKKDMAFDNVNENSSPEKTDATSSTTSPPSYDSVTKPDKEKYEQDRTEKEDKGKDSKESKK

Broadly, the IC50 is the concentration that inhibits the measured activity by half. In the case of `NC(Cc1cn(-c2ccc(Oc3ccccc3)cc2)c2ccccc12)C(=O)NCCO` (stereo not drawn) [Compound 37, 2-Amino-N-(2-hydroxyethyl)-3-[1-(4-phenoxyphenyl)-1H-indol-3-yl]-propionamide], the IC50 under setting [1] worked out at 0.364 ± 0.112 µM. As to `CN(c1ccc(F)cc1)S(=O)(=O)c1ccc(-n2cc(C[C@H](O)CO)c3ccccc32)cc1` [Compound 90, (S)-4-(3-(2,3-Dihydroxypropyl)-1H-indol-1-yl)-N-(4-fluorophenyl)-N-methylbenzenesulfonamide], the IC50 under setting [1] stood at 0.865 ± 0.058 µM.

With `O=C(NO)c1nn(-c2ccc(Oc3ccccc3)cc2)c2ccccc12` [Compound 146, N-Hydroxy-1-(4-phenoxyphenyl)-1H-indazole-3-carboxamide], under setting [2], the IC50 stood at 8.07 ± 0.484 µM. Consider `O=S(=O)(Nc1ccc(F)cc1)c1ccc(-n2cc(C[C@H](O)CO)c3ccccc32)cc1` [Compound 92, (S)-4-(3-(2,3-Dihydroxypropyl)-1H-indol-1-yl)-N-(4-fluorophenyl)benzenesulfonamide], for which the IC50 under setting [1] worked out at 1.89 ± 0.164 µM. On the same count and under the same terms, the value for `NC(=O)C(O)c1cn(-c2ccc(Oc3ccc(C(F)(F)F)cn3)cc2)c2ccccc12` (stereo not drawn) [Compound 195, 2-Hydroxy-2-(1-(4-((5-(trifluoromethyl)pyridin-2-yl)oxy)phenyl)-1H-indol-3-yl)acetamide] was 0.276 ± 0.011 µM; that for `N#Cc1ccc(Oc2ccc(-n3cc(C[C@H](O)CO)c4ccncc43)cc2)cc1` [Compound 170] was 1.38 ± 0.542 µM; that for `N#Cc1cc(Oc2ccc(-n3cc(C[C@@H](O)CO)c4c(C(O)CO)cccc43)cc2)ccc1C(F)(F)F` (stereo partly drawn) [Compound 139, 5-(4-(4-(1,2-Dihydroxyethyl)-3-((R)-2,3-dihydroxypropyl)-1H-indol-1-yl)phenoxy)-2-(trifluoromethyl)benzonitrile] was over 20 µM. Regarding `CCOC(=O)C(Cc1c[nH]c2cc(-c3ccc(Oc4ccccc4)cc3)ccc12)NC(=O)OC(C)(C)C` (stereo not drawn) [Compound 16, 2-tert-Butoxycarbonylamino-3-[6-(4-phenoxyphenyl)-1H-indol-3-yl]-propionic acid ethyl ester], the IC50 under setting [1] was determined as 2.52 ± 0.663 µM.

As for `NC(=O)C(N)Cc1c(-c2ccc(Oc3ccccc3)cc2)[nH]c2ccccc12` (stereo not drawn) [Compound 28, 2-Amino-3-[2-(4-phenoxyphenyl)-1H-indol-3-yl]propionamide], under setting [1], the IC50 is 0.24 ± 0.023 µM. For the compound `N#Cc1cccc2c(C[C@H](O)CO)cn(-c3ccc(Oc4ccc(F)cc4)cc3)c12` [Compound 115, (S)-3-(2,3-Dihydroxypropyl)-1-(4-(4-fluorophenoxy)phenyl)-1H-indole-7-carbonitrile], the IC50 under setting [1] stood at 0.474 ± 0.133 µM. As for `N#Cc1ccc2c(c1)c(C[C@H](O)CO)cn2-c1ccc(Oc2ccc(F)cc2)cc1` [Compound 110, (S)-3-(2,3-Dihydroxypropyl)-1-(4-(4-fluorophenoxy)phenyl)-1H-indole-5-carbonitrile], under setting [1], the concentration for half-maximal inhibition (IC50) was 2.45 ± 0.542 µM. As to `N[C@H](CO)Cc1cn(-c2ccc(Oc3ccc(C(F)(F)F)cn3)cc2)c2ccccc12` [Compound 196, (S)-2-Amino-3-(1-(4-((5-(trifluoromethyl)pyridin-2-yl)oxy)phenyl)-1H-indol-3-yl)propan-1-ol], the 50% inhibitory concentration (IC50) under setting [1] turned out to be 0.34 ± 0.023 µM. Turning to `CCOC(=O)C(N)Cc1c[nH]c2ccc(-c3ccc(Oc4ccccc4)cc3)cc12` (stereo not drawn) [Compound 7, 2-Amino-3-[5-(4-phenoxyphenyl)-1H-indol-3-yl]propionic acid ethyl ester], the concentration for half-maximal inhibition (IC50) under setting [1] came to 0.481 ± 0.042 µM. With `CC(C)(C)OC(=O)NC(Cc1c[nH]c2cc(-c3ccc(Oc4ccccc4)cc3)ccc12)C(=O)O` (stereo not drawn) [Compound 17, 2-tert-Butoxycarbonylamino-3-[6-(4-phenoxyphenyl)-1H-indol-3-yl]-propionic acid], under setting [1], the IC50 was 1.93 ± 0.228 µM. As to `CCN(CC)CCn1cc(C(=O)C(N)=O)c2cc(-c3ccc(Oc4ccc(F)cc4)cc3)ccc21` [Compound 178, 2-(1-(2-Diethylamino)ethyl-5-(4-(4-fluorophenoxy)phenyl)-1H-indol-3-yl)-2-oxoacetamide], the IC50 under setting [2] is 1.03 ± 0.076 µM.
